This data set can be described thus: Solubility test of metal salts/chelates in glycol and other solvents. The procedure: The following mixtures were prepared from anhydrous copper-EDTA and the solvents described below.
Each time 1,2-propanediol was used as solvent. EDTA is ethylene-diamine tetra-acetic acid; DTPA is diethylenetriaminepentaacetic acid. […]

Setting [1] is: 1 wt % Cu.EDTA in the named solvent, same procedure as examples 1-9.

Read-outs that look alike come from different tables or passages of the source.

Turning to `OCCCCO` [1,4-butanediol], under setting [1], the “clear solution with 1 wt % Cu.EDTA (comparison solvents)” value (shortened to “clear solution with 1 wt % Cu.EDTA”) is “None of these solvents were able to provide a clear solution”.

As for `CC(N)CO` (centres unmarked) [2-aminopropanol], the “clear solution with 1 wt % Cu.EDTA” value was “None of these solvents were able to provide a clear solution”.

Consider `C[S+](C)[O-]` [DMSO], for which the “clear solution with 1 wt % Cu.EDTA” value was “None of these solvents were able to provide a clear solution”.

As for `CC(C)=O` [acetone], the “clear solution with 1 wt % Cu.EDTA” value under setting [1] is “None of these solvents were able to provide a clear solution”.

Consider `CC(C)O` [iso-propylalcohol], for which the “clear solution with 1 wt % Cu.EDTA” value is “None of these solvents were able to provide a clear solution”.

The record behind these values is patent US20210300832A1, “Micronutrient Concentrate and use thereof” (FINE AGROCHEMICALS LIMITED, priority 2018, published 2021).
